Reference: patent US11891360B2, “Glycosylated psilocybin derivatives and methods of using” (Enveric Biosciences Canada Inc., priority 2020, dated 2024)
pEC50: −log10 of the molar value.

Experiments:
[1] = target: 5-HT2A receptor (Homo sapiens, UniProt P28223); experiment: Calcium mobilization (Fluo-8) assay in CHO-K1 cells stably expressing 5-HT2A (+5-HT2A); assay type: cell-based
Method: Briefly, vials with cells were removed from the liquid nitrogen and thawed quickly in 37° C. water bath.

[2] = test system: CHO-K1/Galpha15 cells (−5-HT2A); experiment: Calcium mobilization (Fluo-8) assay in control cells lacking 5-HT2A (−5-HT2A); assay type: cell-based, Chinese Hamster; details: CHO-K1/Galpha15 control cells lacking 5-HT2A
From the text: Cell lines for pharmacology assays. CHO-K1/Galpha15 (GenScript, M00257) (−5-HT2A) and CHO-K1/5-HT2A (GenScript, M00250) (+5-HT2A) cells lines were used in both toxicology/growth inhibition (MTT) and calcium release assays. Briefly, CHO-K1/Galpha15 is a control cell line that constitutively expresses Galpha15 which is a promiscuous Gq protein. It is engineered as a host cell, allowing transfected receptor(s) to signal through the Gq signal transduction pathway and mobilize intracellular calcium from the endoplasmic reticulum (ER). These control cells lack any transgene encoding 5-HT2A receptors, thus preventing calcium mobilization in response to 5-HT2A activation. Conversely, CHO-K1/5-HT2A cells stably express 5-HT2A receptor in the CHO-K1 host background. This design enables Gq-11 expressed in CHO-K1 cells to mobilize intracellular calcium changes when 5-HT2A receptors are activated by ligands.
Cell lines were maintained in Ham's F12 media plus 10% FBS in the presence of 100 ug/ml hygromycin for CHO-K1/Ga15 or 400 ug/ml G418 for CHO-K1/5-HT2A unless indicated otherwise for specific assays. Cell maintenance was carried out as recommended by the cell supplier. Briefly, vials with cells were removed from the liquid nitrogen and thawed quickly in 37° C. water bath. […]
Increase in cytosolic calcium concentration by 5-HT2A activation. Changes in intracellular calcium concentration due to the treatment with assay compounds was measured using Fluo-8 dye (Abcam, #ab112129) according to the manufacturer's instructions. […] Fluorescence (ex 490 nm/em 525 nm) obtained after the addition of molecules was expressed relative to values obtained before addition of the molecules (relative Fluo-8 fluorescence=Fmax/F0, where Fmax=maximum fluorescence and F0=baseline fluorescence). Fluorescence intensities were measured using a Spectramax ID3 plate reader (www.moleculardevices.com). Relative fluorescence (RFU) was plotted with respected to time (seconds) illustrating time-dependent calcium flux. […] The Example compound (Ill) was then evaluated.

5-HT2A receptor, sequence (P28223 whole entry): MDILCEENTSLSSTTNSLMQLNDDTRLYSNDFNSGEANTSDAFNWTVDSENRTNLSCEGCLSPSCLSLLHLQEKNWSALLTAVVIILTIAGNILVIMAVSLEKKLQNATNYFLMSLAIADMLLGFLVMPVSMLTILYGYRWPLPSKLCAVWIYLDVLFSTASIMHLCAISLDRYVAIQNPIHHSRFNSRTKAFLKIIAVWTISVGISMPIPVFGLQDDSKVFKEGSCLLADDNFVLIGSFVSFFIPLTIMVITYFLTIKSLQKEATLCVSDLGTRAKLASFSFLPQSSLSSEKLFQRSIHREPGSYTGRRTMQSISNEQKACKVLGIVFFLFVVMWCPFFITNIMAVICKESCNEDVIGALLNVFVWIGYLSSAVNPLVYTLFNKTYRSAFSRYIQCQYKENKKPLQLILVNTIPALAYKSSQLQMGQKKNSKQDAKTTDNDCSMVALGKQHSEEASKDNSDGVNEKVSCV

Row | Structure (SMILES) | pEC50 ([1]; CHO-K1/5-HT2A (+5-HT2A) cells, four parameter logistic curve fitting, GraphPad Prism, read-out: EC50 of relative Fluo-8 fluorescence (calcium mobilization)) | calcium flux response in −5-HT2A cells [2] | dose dependence of calcium flux response ([1]; +5-HT2A cells, 0.001-100 μM) | time to peak of intracellular calcium flux ([1]; +5-HT2A cells, 0.001-100 μM, relative Fluo-8 fluorescence vs time)
1 | CN(C)CCc1c[nH]c2cccc(O[C@@H]3OC(CO)[C@H](O)C(O)C3O)c12 (stereo partly drawn) [VI, N,N-dimethyl-4-O-β-D-galactopyranosyltryptamine] | 5.42 |  |  | 
2 | NCCc1c[nH]c2cccc(O[C@@H]3OC(CO)[C@H](O)C(O)C3O)c12 (stereo partly drawn) [V, 4-O-β-D-galactopyranosyltryptamine] |  | did not exhibit a response | response increased with dosage | under 60 seconds
3 | CN(C)CCc1c[nH]c2cccc(O)c12 [psilocin, reference compound] |  | did not exhibit a response | response increased with dosage | 
4 | NCCc1c[nH]c2cccc(O[C@@H]3OC(CO)[C@@H](O)C(O)C3O)c12 (stereo partly drawn) [III, 4-O-β-D-glucopyranosyltryptamine] |  | did not exhibit a response | response increased with dosage | 
